Experimental data taken from publication PMC10256634, “Comparative in vivo toxicokinetics of silver powder, nanosilver and soluble silver compounds after oral administration to rats” (Archives of Toxicology, 2023).
Several values for one entry are separate records, joined by “and”; a condition that tells them apart may be missing. Identical values can stand only once.

Experiments:
[1] = Clinical observations, bodyweight, organ weights and macroscopic examination; assay type: in vivo, Sprague–Dawley rats; details: repeated dose study, 175 mg AgAc/kg bw/d
Description: Animals were inspected visually at least twice daily for evidence of clinical signs or change in health status. As applicable, injection sites were regularly assessed post-dosing for any local reaction. Bodyweight was measured for all single-dose treatments before administration (typically the day before treatment), on the day of administration and on the day of termination. For the 28-day repeated administration phase, the bodyweight of each animal was recorded pre-treatment, on Day 1 of treatment and then at weekly intervals (including on the day of termination).
Following final blood sampling, animals were euthanised using carbon dioxide asphyxiation, with subsequent exsanguination, prior to macroscopic examination for the investigation of any abnormalities. Tissues for analysis of total Ag content were obtained from animals administered the test items for 28 days. The tissue set comprised: brain (whole), bone marrow (from both femurs), small intestine (duodenum/ileum/jejenum), liver, spleen, ovaries, testes (excluding epididymides) and uterus. The luminal contents of GI tract samples were thoroughly flushed out with cold purified water. After weighing, tissues were retained frozen (− 20 °C).

[2] = Toxicokinetics after single oral gavage dose, total Ag in whole blood (ICP-MS)
serum copper (Cu) levels = experiment: Serum Cu levels after 28 days repeated oral dosing (ICP-MS); details: for Serum Cu conc. % of Control group mean: mean (SD)
Description: Samples of whole blood (0.2 mL) were obtained from the jugular vein of animals, with lithium heparin integrated as an anticoagulant. […] Each sample was gently mixed and frozen on dry ice, pending transfer to storage at − 20 °C. […] Serum was obtained by centrifugation (10 min, 2000 RCF) and stored frozen until analysis.
Previous robust TK studies involving the analysis of Ag in biological matrices have utilised aggressive digestion techniques, typically based on digestion/mineralisation in concentrated HNO3 with microwave-accelerated reaction systems. To avoid subsequent precipitation of Ag into insoluble complexes and subsequent loss for analysis, sample stabilisation with an excess of chloride (e.g. HCl) is appropriate. These principles were adopted for sample processing in this investigation. In brief, each blood subsample (50 µL) was combined with 800 µL concentrated HNO3 (65–70%) in a glass pyrex tube. The contents were then digested in an Ultrawave (Milestone, Italy) digester using digestion programme ‘blood’. Afterwards, 800 μL HCl (37%) was added, and 400 μL of the HNO3/HCl digest was combined with 2.60 mL of rhodium internal standard followed by rotary mixing for at least 30 min. The processed sample was then analysed on an Agilent 7900 × inductively coupled plasma mass spectrometer (ICP-MS). […] The digestion was 20 min at elevated temperature and pressure (200 °C, 100 bar, 1500 W). Then, 3 parts of concentrated HCl (35–40%) were added, and the digest was stored at − 20 °C until analysis. A 50 µL subsample was subsequently mixed with 3.95 mL of rhodium internal standard and analysed by ICP-MS. Analysis occurred within the 48-day assured stability period.
All bioanalytical methods underwent validation before deployment. ICP-MS runs included quality control samples and a multilevel calibration. Lower limits of quantitation (LLOQ) for the analytical methods were, respectively, 10 ng/mL for total Ag in blood, 5 ng/mL for total Ag in tissue and 30 ng Cu/mL for Cu in serum.

[3] = single oral dose 5 mg/kg bw [Ag equivalent 3.25 AgAc, 3.2 AgNO3], female
[4] = single oral dose 5 mg/kg bw [Ag equivalent 3.25 AgAc, 3.2 AgNO3], male
[5] = single oral dose 175 [114 Ag] mg/kg bw, female
[6] = single oral dose 175 [114 Ag] mg/kg bw, male
[7] = single oral dose 125 [80 Ag] mg/kg bw, female
[8] = single oral dose 125 [80 Ag] mg/kg bw, male

CC(=O)[O-].[Ag+] [AgAc, Silver(I) acetate]
bodyweight [1]: slight depression in weight gain during Week 1
AUC0-t [2, 3]: 2360 ng·h/mL
Cmax [2, 3]: 108 ng/mL
DN AUC0-t [2, 3]: 726 (ng.h/mL)/(mg/kg bw/d)
DN AUC(0–24) [2, 3]: 431 (ng.h/mL)/(mg/kg bw/d)
Tmax [2, 3]: 3.5 h
t1/2 [2, 3]: 24.5 h
AUC0-t [2, 4]: 1430 ng·h/mL
Cmax [2, 4]: 71.6 ng/mL
DN AUC0-t [2, 4]: 440 (ng.h/mL)/(mg/kg bw/d)
DN AUC(0–24) [2, 4]: 323 (ng.h/mL)/(mg/kg bw/d)
Tmax [2, 4]: 5 h
t1/2 [2, 4]: 23.2 h
AUC0-t [2, 5]: 31,100 ng.h/mL
Cmax [2, 5]: 632 ng/mL
DN AUC0-t [2, 5]: 273 (ng.h/mL)/(mg/kg bw/d)
DN AUC(0–24) [2, 5]: 87 (ng.h/mL)/(mg/kg bw/d)
Tmax [2, 5]: 15.3 h
t1/2 [2, 5]: 25.5 h
AUC0-t [2, 6]: 23,300 ng.h/mL
Cmax [2, 6]: 367 ng/mL
DN AUC0-t [2, 6]: 204 (ng.h/mL)/(mg/kg bw/d)
DN AUC(0–24) [2, 6]: 55 (ng.h/mL)/(mg/kg bw/d)
Tmax [2, 6]: 20.3 h

O=[N+]([O-])[O-].[Ag+] [AgNO3, silver(I) nitrate]
Serum Cu conc. % of Control group mean (serum copper (Cu) levels; 28 d oral 5 [3.2 Ag] mg/kg bw/d, female): 101 (10) % of Control group mean
Serum Cu conc. % of Control group mean (serum copper (Cu) levels; 28 d oral 5 [3.2 Ag] mg/kg bw/d, male): 111 (25) % of Control group mean
Serum Cu conc. % of Control group mean (serum copper (Cu) levels; 28 d oral 55 [35 Ag] mg/kg bw/d, female): 81 (11) % of Control group mean
Serum Cu conc. % of Control group mean (serum copper (Cu) levels; 28 d oral 55 [35 Ag] mg/kg bw/d, male): 79 (13) % of Control group mean
Serum Cu conc. % of Control group mean (serum copper (Cu) levels; 28 d oral 125 [80 Ag] mg/kg bw/d, female): 74 % of Control group mean and 74 (15) % of Control group mean
Serum Cu conc. % of Control group mean (serum copper (Cu) levels; 28 d oral 125 [80 Ag] mg/kg bw/d, male): 62 % of Control group mean and 62 (12) % of Control group mean
Effect on circulating Cu levels (serum copper (Cu) levels; 28 d oral, AgMP up to limit dose 1000 mg/kg bw/d, AgNO3 detectable at 55, statistically significant at 125 mg/kg bw/d): reduction in circulating Cu levels was observed
AUC0-t [2, 3]: 4610 ng·h/mL
AUC(0–24) [2, 3]: 1740 ng·h/mL
Cmax [2, 3]: 109 ng/mL
Tmax [2, 3]: 3.25 h
t1/2 [2, 3]: 30.8 h
AUC0-t [2, 4]: 1550 ng·h/mL
AUC(0–24) [2, 4]: 994 ng·h/mL
Cmax [2, 4]: 62.5 ng/mL
Tmax [2, 4]: 2.5 h
t1/2 [2, 4]: 18.7 h
AUC0-t [2, 7]: 18,700 ng.h/mL
AUC(0–24) [2, 7]: 7670 ng·h/mL
Cmax [2, 7]: 421 ng/mL
Tmax [2, 7]: 15 h
t1/2 [2, 7]: 31.7 h
AUC0-t [2, 8]: 19,400 ng.h/mL
AUC(0–24) [2, 8]: 5970 ng·h/mL
Cmax [2, 8]: 348 ng/mL
Tmax [2, 8]: 21 h
t1/2 [2, 8]: 37.6 h
